Where two headings read alike, the source gives them in different places.

One data set concerns the target Jak2 (Homo sapiens, UniProt O60674). The data set can be described thus: Recombinant kinase screen (Proqinase), Jak2. The class given is biochemical. Particulars: recombinant human enzyme; single experiment, kinase screen by Proqinase.
Data set [1] concerns the target T1, Insulin-like growth factor-I receptor (Homo sapiens, UniProt P08069). The data set can be described thus: Ba/F3 cell proliferation (WST-1), IGF-I receptor. Further details: expressed in transfected cells; host or cells: Ba/F3 (general description; not repeated for this kinase). To be noted: Ba/F3 cells expressing the enzyme, read-out: Cell-based assay IC50, Insulin-like growth factor-I receptor. A general note: Formazan colour is commonly taken as a measure of viable cells.

The next data set concerns the target VEGFR2 (Homo sapiens, UniProt P35968). The data set is described as follows: Recombinant kinase ELISA assay, VEGFR2. The data set is classed as biochemical. To be noted: recombinant human enzyme; ELISA-based assay, poly(Glu,Tyr 4:1) substrate. On the procedure: (§1) Full details for the generation of recombinant human KIT intracellular domain and other protein kinases (including Lyn, platelet derived growth factor receptor β, epidermal growth factor receptor, fibroblast growth factor receptor 1, Src, HCK, PYK, FES, Btk, Bmx, c-Ret, c-Fms, Syk, and c-Met) are provided in the Supplemental Methods (see Supporting Information; Methods S1). Experiments on ABL1, Akt1, protein kinase C-α, insulin-like growth factor receptor 1, and Pim1 were carried out by Proqinase (Germany). All other recombinant protein kinases were performed in-house using an enzyme-linked immunoassay; experimental details are provided in the Supplemental Methods (see Supporting Information; Methods S1).
For orientation: An ELISA detects its analyte on a solid surface through an enzyme-linked reagent.

Data set [2] addresses T1, Insulin-like growth factor-I receptor. The data set can be described thus: Recombinant kinase screen (Proqinase), IGF-I receptor. The data set is classed as biochemical. Particulars: recombinant human enzyme; single experiment, kinase screen by Proqinase. As for the experimental part:
as §1

Another data set has as its system FMA3 cells. The data set can be described thus: Mastocytoma cell line proliferation (WST-1), FMA3. The class given is cell-based, murine. Particulars: Mus musculus, 48 h; 2 days; KIT juxtamembrane mutation. On the procedure:
(§2) (B) western blotting analysis of HMC-1α155 tyrosine phosphorylation. […] (D) Western blotting analysis of BMMC tyrosine phosphorylation. Cell proliferation was assessed by WST-1 colorimetric assay. […] MW = molecular weight.

In another data set the target is T2, c-Fms (Homo sapiens, UniProt P07333).
T2 construct: c-Fms (538–972; BC047531); 6xHN (N); made in house; host or cells: baculovirus, Sf9 insect cells
T2 sequence (P07333 538-972): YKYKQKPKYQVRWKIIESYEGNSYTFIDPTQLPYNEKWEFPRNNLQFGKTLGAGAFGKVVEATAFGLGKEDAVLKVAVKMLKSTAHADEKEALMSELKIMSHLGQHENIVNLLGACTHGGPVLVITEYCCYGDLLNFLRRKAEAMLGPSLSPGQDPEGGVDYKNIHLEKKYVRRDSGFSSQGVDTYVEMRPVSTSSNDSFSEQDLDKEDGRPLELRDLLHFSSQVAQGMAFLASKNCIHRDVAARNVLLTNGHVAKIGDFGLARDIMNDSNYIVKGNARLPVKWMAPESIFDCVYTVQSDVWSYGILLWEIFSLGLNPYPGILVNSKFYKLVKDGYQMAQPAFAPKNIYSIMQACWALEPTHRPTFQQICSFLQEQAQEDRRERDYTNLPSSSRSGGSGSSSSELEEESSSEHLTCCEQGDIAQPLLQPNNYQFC
The data set can be described thus: Recombinant kinase ELISA assay, c-Fms. The data set is classed as biochemical. Particulars: recombinant human enzyme; ELISA-based assay, poly(Glu,Tyr 4:1) substrate. On the procedure: as §1
(§3) The sequences encoding PDGF receptor β (residues 554–1106; GenBank accession no. BC032224), Lyn B (2–583; accession no. BC059394), fibroblast growth factor receptor 1 (572–959; accession no. BC018128), Src (2–536; accession no. BC011566), Btk (2–659; accession no. BC109079), Bmx (2–675; accession no. BC016652), c-Ret (713–1114; accession no. BC004257), c-Fms (538–972; BC047531), Syk (2–612; BC011399), Hck (2-526; accession no. BC014435), Fes (2-822; accession no. BC035357), PYK2 (2-1006; accession no. BC042599) and c-Met (949–1398; accession no. lifeseq3489592) were amplified by PCR from IMAGE cDNA clones purchased from Openbiosystems. […]

The target in the next data set is recombinant human KIT (Homo sapiens, UniProt P10721). On the procedure:
Tyrosine phosphorylation by KIT was assayed by measuring the incorporation of phosphate into poly(Glu,Tyr 4∶1). […] Recombinant human KIT tyrosine kinase assays were performed using an ELISA-based assay with poly(Glu,Tyr 4∶1) as a substrate.
A 96-well microtitre plate (Immulon 2HB; ThermoLifeScience, Finland) was coated overnight with 0.25 mg/ml poly(Glu,Tyr 4:1), rinsed twice with 250 µl of washing buffer (10 mM phosphate-buffered saline [pH 7.4] and 0.05% Tween 20) and dried for 2 hours at room temperature. […] Reactions were initiated upon introduction of the enzyme and terminated with the addition of one reaction volume (50 μl) of 100 mM EDTA per 5 M urea mix. Plates were washed three times and incubated with 1:30,000 horseradish peroxidase-conjugated anti-phosphotyrosine monoclonal antibody (Sigma-Aldrich, France), then washed three times and incubated with tetramethylbenzidine. The final reaction product was quantified by spectrophotometry at 450 nm.

Data set [3] has as its target Epidermal growth factor receptor (Homo sapiens, UniProt P00533). The data set is described as follows: Recombinant kinase ELISA assay, EGFR. The data set is classed as biochemical. Set-up: The cDNA encoding the EGF receptor (664–1210); 6xHN (N); made in house; host or cells: baculovirus, Sf9 insect cells. Particulars: recombinant human enzyme; ELISA-based assay, poly(Glu,Tyr 4:1) substrate. As for the experimental part:
as §1
A 96-well microtitre plate (Immulon 2HB; ThermoLifeScience, Finland) was coated overnight with 0.25 mg/ml poly(Glu,Tyr 4:1), rinsed twice with 250 µl of washing buffer (10 mM phosphate-buffered saline [pH 7.4] and 0.05% Tween 20) and dried for 2 hours at room temperature. […] Reactions were initiated upon introduction of the enzyme and terminated with the addition of one reaction volume (50 μl) of 100 mM EDTA per 5 M urea mix. […] The final reaction product was quantified by spectrophotometry at 450 nm.

The target of another data set is T3, Syk (Homo sapiens, UniProt P43405).
T3 construct: Syk (2–612; BC011399); 6xHN (N); made in house; host or cells: baculovirus, Sf9 insect cells
The data set is described as follows: Recombinant kinase ELISA assay, Syk. The class given is biochemical. Particulars: recombinant human enzyme; ELISA-based assay, poly(Glu,Tyr 4:1) substrate. On the procedure:
as §1, §3

The next data set can be described thus: Solubility. The data set is classed as physicochemical. The source says:
The chemical name is 4-(4-methylpiperazin-1-ylmethyl)-N-[4-methyl-3-(4-pyridin-3ylthiazol-2-ylamino) phenyl]benzamide-mesylate methane sulfonic acid salt, and the chemical formula is C28H30N6OS·CH4O3S (Figure 1A). […] Fresh dilutions of masitinib were made for each experiment. The imatinib used in this study was purchased from Sequoia Research (UK).

Another data set deals with T4, Pim1 (Homo sapiens, UniProt P11309).
T4 construct: purchased Proqinase (Germany)
T4 sequence (P11309 whole entry): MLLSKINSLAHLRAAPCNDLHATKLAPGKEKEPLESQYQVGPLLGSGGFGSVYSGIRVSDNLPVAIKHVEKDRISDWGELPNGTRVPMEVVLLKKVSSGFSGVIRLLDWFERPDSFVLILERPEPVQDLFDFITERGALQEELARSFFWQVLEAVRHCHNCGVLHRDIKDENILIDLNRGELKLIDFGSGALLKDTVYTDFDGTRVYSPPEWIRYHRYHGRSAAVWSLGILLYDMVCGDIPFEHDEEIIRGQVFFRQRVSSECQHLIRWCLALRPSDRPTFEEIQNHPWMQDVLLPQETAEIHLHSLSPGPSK
The data set is described as follows: Recombinant kinase screen (Proqinase), Pim1. The data set is classed as biochemical. To be noted: recombinant human enzyme; single experiment, kinase screen by Proqinase. On the procedure:
as §1

A further data set has as its system primary BMMCs. The data set is described as follows: IL-3-stimulated proliferation of primary BMMCs. The data set is classed as cell-based, mice. Particulars: Mus musculus, BMMC, primary murine BMMCs. On the procedure:
as §2

T1 sequence (P08069 31-1367): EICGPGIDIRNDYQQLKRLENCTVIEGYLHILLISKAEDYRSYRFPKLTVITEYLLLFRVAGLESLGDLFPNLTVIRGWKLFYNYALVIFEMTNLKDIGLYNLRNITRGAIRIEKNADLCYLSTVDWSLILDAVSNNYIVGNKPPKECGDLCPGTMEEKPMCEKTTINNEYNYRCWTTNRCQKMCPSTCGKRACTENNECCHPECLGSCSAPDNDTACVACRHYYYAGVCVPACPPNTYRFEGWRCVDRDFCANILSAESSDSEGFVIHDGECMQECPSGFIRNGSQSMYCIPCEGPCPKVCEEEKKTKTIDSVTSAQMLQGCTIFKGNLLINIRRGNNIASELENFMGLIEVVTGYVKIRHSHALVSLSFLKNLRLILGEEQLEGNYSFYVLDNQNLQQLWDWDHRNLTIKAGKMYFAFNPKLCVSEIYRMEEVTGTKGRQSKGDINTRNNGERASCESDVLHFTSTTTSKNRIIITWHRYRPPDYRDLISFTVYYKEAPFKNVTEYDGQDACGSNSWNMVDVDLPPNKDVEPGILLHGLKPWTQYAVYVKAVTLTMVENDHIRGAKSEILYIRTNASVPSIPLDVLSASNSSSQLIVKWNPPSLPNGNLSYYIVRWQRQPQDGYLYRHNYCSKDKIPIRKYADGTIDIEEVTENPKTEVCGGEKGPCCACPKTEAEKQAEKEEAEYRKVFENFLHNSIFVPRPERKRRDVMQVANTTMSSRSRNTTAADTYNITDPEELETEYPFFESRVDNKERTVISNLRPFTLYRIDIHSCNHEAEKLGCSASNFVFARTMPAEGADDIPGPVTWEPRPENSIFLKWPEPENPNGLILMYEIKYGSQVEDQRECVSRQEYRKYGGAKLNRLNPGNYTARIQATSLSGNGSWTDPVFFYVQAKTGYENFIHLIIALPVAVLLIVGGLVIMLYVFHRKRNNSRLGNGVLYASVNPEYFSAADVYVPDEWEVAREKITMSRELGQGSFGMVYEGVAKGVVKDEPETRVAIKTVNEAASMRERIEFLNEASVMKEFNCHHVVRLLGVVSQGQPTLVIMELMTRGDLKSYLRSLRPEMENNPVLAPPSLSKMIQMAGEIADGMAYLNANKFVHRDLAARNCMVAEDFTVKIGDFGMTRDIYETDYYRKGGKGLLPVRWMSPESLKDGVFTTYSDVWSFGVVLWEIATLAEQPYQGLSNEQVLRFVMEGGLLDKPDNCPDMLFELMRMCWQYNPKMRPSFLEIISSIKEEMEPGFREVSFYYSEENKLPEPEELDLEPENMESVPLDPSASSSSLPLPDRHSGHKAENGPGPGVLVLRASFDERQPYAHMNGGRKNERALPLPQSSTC
recombinant human KIT, sequence (P10721 567-976): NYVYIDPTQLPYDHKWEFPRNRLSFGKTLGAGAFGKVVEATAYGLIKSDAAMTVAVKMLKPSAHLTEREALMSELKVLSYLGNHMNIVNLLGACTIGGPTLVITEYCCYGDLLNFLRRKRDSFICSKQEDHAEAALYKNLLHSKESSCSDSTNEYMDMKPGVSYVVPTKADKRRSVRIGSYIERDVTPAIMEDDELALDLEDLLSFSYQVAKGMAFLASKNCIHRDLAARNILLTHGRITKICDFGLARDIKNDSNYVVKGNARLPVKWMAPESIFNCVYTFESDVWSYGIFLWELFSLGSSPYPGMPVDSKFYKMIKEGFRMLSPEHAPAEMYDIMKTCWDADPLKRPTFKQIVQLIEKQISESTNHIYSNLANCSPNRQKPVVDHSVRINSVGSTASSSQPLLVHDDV
VEGFR2, sequence (P35968 20-1356): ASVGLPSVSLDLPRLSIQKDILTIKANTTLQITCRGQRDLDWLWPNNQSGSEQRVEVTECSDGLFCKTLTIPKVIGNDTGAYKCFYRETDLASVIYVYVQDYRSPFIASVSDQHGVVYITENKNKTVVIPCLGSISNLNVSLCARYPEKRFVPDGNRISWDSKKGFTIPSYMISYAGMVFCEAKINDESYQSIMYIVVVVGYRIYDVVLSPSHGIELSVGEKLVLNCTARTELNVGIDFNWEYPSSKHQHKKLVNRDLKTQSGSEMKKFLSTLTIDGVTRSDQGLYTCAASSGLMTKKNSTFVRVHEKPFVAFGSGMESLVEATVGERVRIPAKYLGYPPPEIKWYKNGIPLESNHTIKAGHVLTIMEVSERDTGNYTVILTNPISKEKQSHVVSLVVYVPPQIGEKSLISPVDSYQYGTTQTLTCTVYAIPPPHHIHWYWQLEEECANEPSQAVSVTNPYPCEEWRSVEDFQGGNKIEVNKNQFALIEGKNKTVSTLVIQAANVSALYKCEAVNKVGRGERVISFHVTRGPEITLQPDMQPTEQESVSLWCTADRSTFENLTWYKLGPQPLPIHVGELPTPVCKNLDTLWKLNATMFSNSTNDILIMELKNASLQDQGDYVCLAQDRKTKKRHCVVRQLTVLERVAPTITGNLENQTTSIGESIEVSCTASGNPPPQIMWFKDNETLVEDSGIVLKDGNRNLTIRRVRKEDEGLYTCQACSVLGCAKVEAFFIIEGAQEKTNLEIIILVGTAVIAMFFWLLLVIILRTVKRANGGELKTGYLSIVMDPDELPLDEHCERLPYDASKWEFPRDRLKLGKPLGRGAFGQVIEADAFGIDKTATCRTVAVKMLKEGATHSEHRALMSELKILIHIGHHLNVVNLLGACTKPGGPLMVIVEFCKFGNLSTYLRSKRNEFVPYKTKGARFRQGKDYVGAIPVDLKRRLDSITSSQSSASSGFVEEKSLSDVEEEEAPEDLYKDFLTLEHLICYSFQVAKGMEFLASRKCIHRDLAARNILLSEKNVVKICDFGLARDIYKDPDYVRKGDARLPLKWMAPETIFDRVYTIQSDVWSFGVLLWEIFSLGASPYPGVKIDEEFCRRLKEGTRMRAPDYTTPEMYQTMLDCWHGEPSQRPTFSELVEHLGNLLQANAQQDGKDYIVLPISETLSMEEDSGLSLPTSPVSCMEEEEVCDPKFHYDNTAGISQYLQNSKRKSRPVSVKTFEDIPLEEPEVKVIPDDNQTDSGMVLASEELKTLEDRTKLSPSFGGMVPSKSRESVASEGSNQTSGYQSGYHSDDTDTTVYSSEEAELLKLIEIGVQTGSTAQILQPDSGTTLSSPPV
Epidermal growth factor receptor, sequence (P00533 664-1210): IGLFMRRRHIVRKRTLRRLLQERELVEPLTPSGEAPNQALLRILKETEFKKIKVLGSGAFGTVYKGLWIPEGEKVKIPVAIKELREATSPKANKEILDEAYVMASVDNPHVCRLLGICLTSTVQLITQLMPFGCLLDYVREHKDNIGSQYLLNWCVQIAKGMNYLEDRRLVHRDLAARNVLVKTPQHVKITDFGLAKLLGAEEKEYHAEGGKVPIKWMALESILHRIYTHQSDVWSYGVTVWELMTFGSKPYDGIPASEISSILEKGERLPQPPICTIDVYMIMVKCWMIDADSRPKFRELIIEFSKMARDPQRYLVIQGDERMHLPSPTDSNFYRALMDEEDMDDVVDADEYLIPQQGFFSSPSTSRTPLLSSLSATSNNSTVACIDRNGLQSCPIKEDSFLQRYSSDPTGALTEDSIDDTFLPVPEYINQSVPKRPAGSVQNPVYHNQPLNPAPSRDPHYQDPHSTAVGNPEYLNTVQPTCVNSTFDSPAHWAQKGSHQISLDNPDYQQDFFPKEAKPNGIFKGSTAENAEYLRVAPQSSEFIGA

`CS(=O)(=O)O.CS(=O)(=O)O.Cc1ccc(NC(=O)c2ccc(CN3CCN(C)CC3)cc2)cc1Nc1nc(-c2cccnc2)cs1` [masitinib, 4-(4-methylpiperazin-1-ylmethyl)-N-[4-methyl-3-(4-pyridin-3ylthiazol-2-ylamino)phenyl]benzamide-mesylate methane sulfonic acid salt]: the IC50 was more than 10 µM at Jak2; 10 ± 0.67 µM in [1]; more than 10 µM at VEGFR2; more than 10 µM in [2]; approximately 0.03 µM in the data set with FMA3 cells; 1.48 ± 0.54 µM on c-Fms. For the same compound, the IC50 (in data set [3]; on Syk; on Pim1; in the data set with primary BMMCs) was more than 10 µM each time. Moreover, the “mechanism of inhibition against ATP” value at recombinant human KIT (concentrations ≤500 nM) was “competitive inhibitor against ATP”; on recombinant human KIT (higher concentrations (>1 µM)), “mixed mechanism of inhibition against ATP”. The solubility result is on record as “freely soluble” in “Solubility” (0.1 M HCl); “practically insoluble” in the data set “Solubility” (0.1 M NaOH); “freely soluble” in “Solubility” (dimethylsulfoxide); “slightly soluble” in the data set “Solubility” (ethanol); “practically insoluble” in the data set “Solubility” (n-hexane); “slightly soluble” in “Solubility” (propylene glycol). The solubility result in “Solubility” (water) is reported as “soluble”.

The IC50 is the point on the concentration scale where inhibition reaches its midpoint.

The record behind these values is article PMC2746281 (PLoS ONE, 2009).
